Laboratory results published in ChEMBL document CHEMBL1128249, “2,4-Diamino-5-substituted-quinazolines as inhibitors of a human dihydrofolate reductase with a site-directed mutation at position 22 and of the dihydrofolate reductases from Pneumocystis carinii and Toxoplasma gondii” (J Med Chem, 1995).

Key:
[1] = biological target: T1, Dihydrofolate reductase (Homo sapiens, UniProt P00374); assay: Inhibitory compound against Wild-type human DHFR.
T1 sequence (P00374 whole entry): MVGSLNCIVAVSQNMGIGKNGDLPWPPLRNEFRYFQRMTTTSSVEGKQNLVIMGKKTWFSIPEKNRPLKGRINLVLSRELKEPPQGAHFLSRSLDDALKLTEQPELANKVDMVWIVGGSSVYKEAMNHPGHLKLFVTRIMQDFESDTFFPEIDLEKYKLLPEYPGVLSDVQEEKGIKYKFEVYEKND

[2] = biological target: T2, Bifunctional dihydrofolate reductase-thymidylate synthase (Toxoplasma gondii, UniProt Q07422)
T2 sequence (Q07422 whole entry): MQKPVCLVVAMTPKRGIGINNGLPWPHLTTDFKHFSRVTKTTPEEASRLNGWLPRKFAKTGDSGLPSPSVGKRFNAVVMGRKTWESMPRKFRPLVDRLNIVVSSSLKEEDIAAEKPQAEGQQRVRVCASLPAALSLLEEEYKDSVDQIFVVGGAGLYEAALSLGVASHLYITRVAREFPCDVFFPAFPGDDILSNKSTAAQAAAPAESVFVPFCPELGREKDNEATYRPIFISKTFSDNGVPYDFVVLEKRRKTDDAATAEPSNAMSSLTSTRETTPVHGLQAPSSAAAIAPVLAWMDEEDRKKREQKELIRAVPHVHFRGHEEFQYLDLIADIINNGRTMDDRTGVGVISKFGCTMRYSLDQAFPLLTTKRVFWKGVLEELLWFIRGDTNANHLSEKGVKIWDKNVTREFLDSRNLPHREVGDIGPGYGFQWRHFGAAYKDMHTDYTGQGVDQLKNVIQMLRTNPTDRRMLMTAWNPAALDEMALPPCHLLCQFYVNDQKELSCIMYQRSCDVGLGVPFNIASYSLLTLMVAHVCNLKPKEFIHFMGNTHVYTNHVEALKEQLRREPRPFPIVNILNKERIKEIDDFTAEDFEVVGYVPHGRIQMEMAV
Description: Inhibitory activity against Toxoplasma gondii Dihydrofolate reductase

[3] = biological target: T3, Dihydrofolate reductase (Pneumocystis carinii, UniProt P16184)
T3 sequence (P16184 whole entry): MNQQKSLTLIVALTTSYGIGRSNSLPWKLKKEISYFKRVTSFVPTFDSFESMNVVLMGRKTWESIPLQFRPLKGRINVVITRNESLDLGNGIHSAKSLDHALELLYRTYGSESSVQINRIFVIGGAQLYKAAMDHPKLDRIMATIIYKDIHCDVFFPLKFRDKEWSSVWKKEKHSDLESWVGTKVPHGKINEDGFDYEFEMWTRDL
Description: Inhibitory activity against Pneumocystis carinii Dihydrofolate reductase

[4] = biological target: T4, Dihydrofolate reductase (Rattus norvegicus, UniProt Q920D2)
T4 sequence (Q920D2 whole entry): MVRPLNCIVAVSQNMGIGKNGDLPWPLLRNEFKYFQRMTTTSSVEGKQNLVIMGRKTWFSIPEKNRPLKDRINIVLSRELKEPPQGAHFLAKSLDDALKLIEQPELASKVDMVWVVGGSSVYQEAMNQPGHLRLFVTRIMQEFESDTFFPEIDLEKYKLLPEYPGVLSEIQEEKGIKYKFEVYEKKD
Description: Inhibitory activity against rat liver Dihydrofolate reductase

[5] = biological target: Dihydrofolate reductase (Homo sapiens, UniProt P00374); assay: Inhibitory activity against Leu22-Phe mutant human Dihydrofolate reductase
[6] = biological target: T1, Dihydrofolate reductase; assay: Inhibitory activity against Wild-type human DHFR

COc1ccc(OC)c(C#Cc2cccc3nc(N)nc(N)c23)c1
Ki [1]: > 500 nM
IC50 [2]: > 18000 nM
IC50 [3]: > 18000 nM
IC50 [4]: > 18000 nM
Ki [5]: 140 nM

Nc1nc(N)c2c(/C=C/c3ccccc3)cccc2n1
IC50 [2]: 1200 nM
IC50 [3]: 10000 nM
IC50 [4]: 1500 nM
Ki [5]: 1.8 nM

COc1ccc(OC)c(CCc2cccc3nc(N)nc(N)c23)c1
Ki [1]: 41 nM
IC50 [2]: 5900 nM
IC50 [3]: 19000 nM
IC50 [4]: 4100 nM
Ki [5]: 4.2 nM

COc1ccc(OC)c(NCc2cccc3nc(N)nc(N)c23)c1
IC50 [2]: > 5000 nM
IC50 [3]: > 5000 nM
IC50 [4]: > 5000 nM
Ki [5]: 33 nM

Nc1nc(N)c2c(CCc3ccccc3)cccc2n1
Ki [1]: 23 nM
IC50 [2]: 370 nM
IC50 [3]: 3200 nM
IC50 [4]: 510 nM
Ki [5]: 2.9 nM

COc1ccc(OC)c(N(C)Cc2cccc3nc(N)nc(N)c23)c1
Ki [1]: > 500 nM
IC50 [2]: > 40000 nM
IC50 [3]: > 40000 nM
IC50 [4]: 84000 nM
Ki [5]: 250 nM

Nc1nc(N)c2cc(CNc3ccc(C(=O)NC(CCC(=O)O)C(=O)O)cc3)ccc2n1 (centres undefined)
Ki [6]: 0.00089 nM
Ki [5]: 0.01 nM

COc1cc(NCc2cccc3nc(N)nc(N)c23)cc(OC)c1OC
Ki [1]: > 500 nM
IC50 [2]: > 20000 nM
IC50 [3]: > 20000 nM
IC50 [4]: > 20000 nM
Ki [5]: 310 nM

COc1cc(CCc2cccc3nc(N)nc(N)c23)cc(OC)c1OC
Ki [1]: 72 nM
IC50 [2]: 930 nM
IC50 [3]: 14000 nM
IC50 [4]: 3700 nM
Ki [5]: 4.3 nM

COc1cc(N(C)Cc2cccc3nc(N)nc(N)c23)cc(OC)c1OC
Ki [1]: > 500 nM
IC50 [2]: > 20000 nM
IC50 [3]: > 20000 nM
IC50 [4]: 53000 nM
Ki [5]: 49 nM

Nc1nc(N)c2c(CNc3ccc(C(=O)NC(CCC(=O)O)C(=O)O)cc3)cccc2n1 (centres undefined)
Ki [6]: 0.54 nM
Ki [5]: 2.7 nM

Nc1nc(N)c2c(C#Cc3ccccc3)cccc2n1
Ki [6]: > 500 nM
IC50 [2]: > 30000 nM
IC50 [3]: > 30000 nM
IC50 [4]: > 30000 nM
Ki [5]: 96.3 nM

COc1ccc(OC)c(Cc2cnc3nc(N)nc(N)c3c2C)c1 [PIRITREXIM]
Ki [6]: 33 nM
Ki [5]: 38 nM
